This note sets out measurements from US5480905A, “Benzodioxane derivatives” (Chugai Seiyaku Kabushiki Kaisha, priority 1991, dated 1996).

“Also recorded” adds a separate entry of the source.

The test system of data set [1] is apomorphine induced stereotypic behavior. Put plainly: Antidopamine action, apomorphine induced stereotypic behavior. The format is in vivo, rat. The conditions noted are these: for Apomorphine Induced Stereotypic Behavior, sum of scores: maximum of 24; for Antidopamine action: peroral, apomorphine 0.5 mg/kg s.c. On the procedure:
Seven-week old male S.D. line rats were administered a test drug perorally and after the passage of 30 min, the dopamine agonist apomorphine was injected subcutaneously in an amount of 0.5 mg/kg. For the subsequent 5-30 min period, the intensity of stereotypic behavior that was induced in the rats by apomorphine was measured six times at 5-min intervals by a scoring method and the sum of the scores was determined (for a maximum of 24).

The subject of data set [2] is S.D. line male rats. Put plainly: Antianxiety effect, water drinking under punishment (Vogel). In kind it is in vivo, rat. The arrangement: Antianxiety effect / Antianxiety effect, longevity: unit not given here. To be noted: for change in vivo at 20 mg/kg: Rattus norvegicus, po, read-out: Antianxiety effect, Efficacy.
The subject of data set [3] is S.D. line male rats. Put plainly: Sedative action, amount of spontaneous movement (Animex). The format is in vivo, rat. The conditions noted are these: for Amount of Spontaneous Movement: control 405.2 ± 47.7; for Sedative action / spontaneous movement: peroral 20-60 mg/kg. How it is done: Seven-week old male S.D. line rats were administered a test drug perorally and after the passage of 30 min, the amount of spontaneous movement of the rats was measured for 10 min by means of Animex.

Data set [4] has as its system S.D. line male rats. Put plainly: Antidepressant effect, compelled swim test (Porsolt), time over which rats remain motionless. The arrangement: Antidepressant effect / Antidepressant effect, longevity: scale not given here. To be noted: for inhibition in vivo at 20 mg/kg / ED50: Rattus norvegicus, po, 0.5 h; for inhibition in vivo at 20 mg/kg: 30 min before swim, read-out: Antidepressant effect, Efficacy; for ED50: peroral, probit method, read-out: ED50, dose reducing motionless time by one half vs control. The format is in vivo, rat.

Data set [5] deals with T1, serotonin 2 receptor (Rattus norvegicus, UniProt P14842).
T1 construct: the cortex and hippocampal tissue were extracted from the brain; from tissue; host or cells: brain cortex and hippocampus of 7-week-old male S.D. rats, washed membrane homogenate
T1 sequence (P14842 whole entry): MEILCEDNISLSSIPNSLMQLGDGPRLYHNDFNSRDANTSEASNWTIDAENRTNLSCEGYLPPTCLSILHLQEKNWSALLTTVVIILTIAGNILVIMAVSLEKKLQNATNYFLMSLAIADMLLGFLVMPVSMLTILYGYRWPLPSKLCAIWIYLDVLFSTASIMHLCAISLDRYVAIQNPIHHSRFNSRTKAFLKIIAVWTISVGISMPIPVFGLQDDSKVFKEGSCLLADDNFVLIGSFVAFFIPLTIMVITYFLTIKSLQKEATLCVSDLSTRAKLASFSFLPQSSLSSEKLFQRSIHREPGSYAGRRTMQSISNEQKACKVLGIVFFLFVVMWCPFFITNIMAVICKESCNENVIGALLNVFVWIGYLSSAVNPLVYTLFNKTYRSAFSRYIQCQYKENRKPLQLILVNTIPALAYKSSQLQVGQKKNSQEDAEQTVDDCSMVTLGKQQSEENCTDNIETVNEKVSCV
Briefly: Serotonin 2 receptor binding experiment (3H-ketancerine). To be noted: rat cortex and hippocampal tissue; 0.5 nM 3H-ketancerine; IC50 in M; read-out: -logIC50 5-HT2 (converted). Put shortly:
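Membranes were prepared from cortex and hippocampus of 7-week male SD rats in 50 mM Tris-HCl pH 7.7 and preincubated 20 min at 37 °C to remove endogenous serotonin.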

Setting [6] is: 20 mg/kg peroral, control 14.4 ± 0.9 (Comp. 1: 16.0 ± 1.1).
The mark [7] stands for this setting: peroral 20 mg/kg, 0.5 h after administration.
[8] abbreviates: peroral 20 mg/kg, 2.0 h after administration.
Setting [9] is: peroral 20 mg/kg, 4.0 h after administration.

Turning to `Cc1cccc2c1OC(CNCCNC(=O)C13CC4CC(CC(C4)C1)C3)CO2` (stereo not shown) [Compound 1, N-{[2-(8-methyl-1,4-benzodioxan-2-ylmethyl)amino]ethyl}tricyclo[3,3,1,1^3, ^7]decane-1-carboxyamide], the “Apomorphine Induced Stereotypic Behavior, sum of scores” value in data set [1] (setting [6]) was 14.7. The “Antidopamine action” value in data set [1] was “no effect at all when it was used in a dose of 20 mg/kg; also recorded: no antidopamine action”. The change in vivo at 20 mg/kg in data set [2] (peroral 20 mg/kg) amounted to 85.4 ± 10.3%. Moreover, the Antianxiety effect in data set [2] (peroral 10 mg/kg) was 42.4 ± 2.1; in data set [2] (peroral 20 mg/kg) it was “better effects than MDL-73005”. Further, the “Antianxiety and antidepressant effects” value in data set [2] (peroral 10 mg/kg, Table 6) is recorded as “superiority”. Moreover, the entries for the “Antianxiety effect, longevity” value in data set [2] (setting [7]), in data set [2] (setting [8]) and in data set [2] (setting [9]) were 52.8, 48.2 and 29.5, respectively. For the same compound, the “Amount of Spontaneous Movement” value in data set [3] (20 mg/kg peroral) was 442.0 Counts/10 min; in data set [3] (40 mg/kg peroral) it was 401.8 Counts/10 min; in data set [3] (60 mg/kg peroral), 319.4 Counts/10 min. Besides, the “Sedative action / spontaneous movement” value in data set [3] is reported as “no appreciable sedative action”. In addition, the inhibition in vivo at 20 mg/kg in data set [4] (peroral 20 mg/kg) turned out to be 72 ± 5.5%. Besides, the ED50 in data set [4] is 8.1 mg/kg. The values for the Antidepressant effect in data set [4] (peroral 10 mg/kg) and in data set [4] (peroral 20 mg/kg) were 66.7 ± 12.6 and “better antidepressant effects than WY-50324”, respectively. For the same compound, the “Antidepressant effect, longevity” value stood at 71.8 in data set [4] (setting [7]), 73.9 in data set [4] (setting [8]) and 40.7 in data set [4] (setting [9]). Also, the “Antidepressant activity relative to WY-50324 (ED50)” value in data set [4] (ratio of ED50) was “three times the activity of WY-50324”. Moreover, the IC50 in data set [5] was 30.2 nM.
Turning to `O=C(NCCN1CCN(c2ncccn2)CC1)C12CC3CC(CC(C3)C1)C2` [WY-50324, reference compound], the “Apomorphine Induced Stereotypic Behavior, sum of scores” value in data set [1] (10 mg/kg peroral, control 14.4 ± 0.9) is 14.7; in data set [1] (setting [6]), 12.1; in data set [1] (40 mg/kg peroral, control 14.4 ± 0.9), 10.9. In addition, in data set [1], the “Antidopamine action” value is listed as “showed an inhibitory action in high doses”. In addition, the change in vivo at 20 mg/kg in data set [2] (peroral 20 mg/kg) came to 46.9 ± 6.3%. Further, the figures for the “Antianxiety effect, longevity” value in data set [2] (setting [7]), in data set [2] (setting [8]) and in data set [2] (setting [9]) were 57.8, 24.8 and 11.2, respectively. For the same compound, the “Amount of Spontaneous Movement” value amounted to 315.5 Counts/10 min in data set [3] (20 mg/kg peroral), 361.9 Counts/10 min in data set [3] (40 mg/kg peroral) and 401.6 Counts/10 min in data set [3] (60 mg/kg peroral). Also, in data set [3], the “Sedative action / spontaneous movement” value is “no appreciable sedative action”. In addition, the inhibition in vivo at 20 mg/kg in data set [4] (peroral 20 mg/kg) turned out to be 58.1 ± 5%. Besides, the ED50 in data set [4] was determined as 24.3 mg/kg. Also, the “Antidepressant effect, longevity” value is on record as 56.7 in data set [4] (setting [7]), 17.3 in data set [4] (setting [8]) and 0.7 in data set [4] (setting [9]). Besides, the IC50 in data set [5] is 200 nM.

The term ED50 denotes the midpoint of the dose-response relation.
